Measurements as given in PubChem BioAssay (NCI).
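Interpolation was linear, between the two tested concentrations surrounding the appropriate level; five concentrations were tested over 48 hours in 96-well plates. TGI denotes the concentration required for complete inhibition of growth.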

Assays:
Experiment in all cases: inhibition of tumour cell growth, NCI panel, 48 h
[1] = system: RPMI-8226 leukemia
[2] = system: HOP-92 NSCLC
[3] = system: RXF 393 renal
[4] = system: HCC-2998 colon
[5] = system: UACC-257 melanoma
[6] = system: SN12C renal
[7] = system: MOLT-4 leukemia
[8] = system: NCI/ADR-RES ovarian
[9] = system: SW-620 colon
[10] = system: DU-145 prostate
[11] = system: CAKI-1 renal
[12] = system: OVCAR-3 ovarian
[13] = system: NCI-H460 lung
[14] = system: KM12 colon
[15] = system: SR leukemia
[16] = system: U251 CNS
[17] = system: SF-295 CNS
[18] = system: LOX IMVI melanoma
[19] = system: ACHN renal
[20] = system: T-47D breast

| Compound | TGI [1] [µM] | TGI [2] [µM] | TGI [3] [µM] | TGI [4] [µM] | TGI [5] [µM] | TGI [6] [µM] | TGI [7] [µM] | TGI [8] [µM] | TGI [9] [µM] | TGI [10] [µM] | TGI [11] [µM] | TGI [12] [µM] | TGI [13] [µM] | TGI [14] [µM] | TGI [15] [µM] | TGI [16] [µM] | TGI [17] [µM] | TGI [18] [µM] | TGI [19] [µM] | TGI [20] [µM] |
| --- | --- | --- | --- | --- | --- | --- | --- | --- | --- | --- | --- | --- | --- | --- | --- | --- | --- | --- | --- | --- |
| CC(=O)c1cc2c(s1)C(=O)c1ccccc1C2=O | 26.9 | 21.6 | 28 | 18.3 | 3.15 | 16.3 | 8.67 | 6.17 | 9.67 | 12 | 37 | 11.1 | > 33.4 | 11.5 | > 100 | 17 | 8.99 | 15 | 4.02 | 20.6 |
| c1ccc2c(c1)nc1n2CCSC1 | > 100 | > 100 | > 100 | > 100 | > 100 | > 100 | > 100 | > 100 | > 100 | > 100 | > 100 | > 100 | > 100 | > 100 | > 100 | > 100 | > 100 | > 100 | > 100 | > 100 |
| COC(=O)[C@@H]1C[C@@]2(C3C=CN(C(=O)C(F)(F)F)C=C3)c3ccccc3N(C(=O)C(F)(F)F)[C@H]2N1C(=O)OC | > 100 | > 100 | 60.4 | > 100 | > 100 | > 100 | > 100 | > 100 | > 100 | > 100 | > 100 | > 100 | > 100 | > 100 | > 100 | > 100 | > 100 | > 100 | > 100 | > 100 |
| C=C(C)C1CC=C(C)C2(C1)OCC(C)(C)C(C)O2 (stereo not given) | 43.2 | 23.6 | 27.3 | 93.2 | 81.9 | 33.4 | 51.2 | 37.5 | 43.2 | > 100 | 36.7 | 29.9 | > 100 | 32.9 | 43.6 | 31 | 48.2 | 31.8 | 40.9 | 55.4 |
| COc1ccc2nc3cc(Cl)ccc3c(NCCNCCCNC(=O)c3cc(-c4ccccc4)nc4ccccc34)c2c1 | > 100 | > 100 | > 100 | > 100 | > 100 | > 100 | > 100 | > 100 | > 100 | > 100 | > 100 | > 100 | > 100 | > 100 | > 100 | > 100 | > 100 | > 100 | > 100 | > 100 |
| O=c1oc2ccc(Cl)cc2cc1-c1cn2cc(Cl)ccc2n1 | > 100 | > 100 | > 100 | > 100 | > 100 | > 100 | > 100 | > 85.9 | > 100 | > 100 | > 100 | > 100 | > 100 | > 58.6 | > 100 | > 100 | > 100 | > 100 | > 100 | > 100 |
| COc1cc(C2S/C(=C/c3ccccc3)C(=O)N2c2ccc(Cl)c(Cl)c2)cc(OC)c1OC (stereo not given) | > 100 | > 84.2 | > 100 | > 100 | > 100 | > 100 | > 100 | > 100 | > 100 | > 100 | > 100 | > 100 | > 100 | > 70.3 | > 100 | > 100 | > 100 | > 100 | > 100 | > 100 |
| CCOC(=O)C(/C=N\C(=S)Nc1ccc(OCC)cc1)=C(/O)c1ccccc1 | > 100 | 67.8 | > 100 | > 100 | > 100 | > 100 | > 100 | > 100 | > 100 | > 100 | > 100 | > 100 | > 100 | > 100 | > 100 | > 100 | > 100 | > 100 | > 100 | > 100 |
| O=c1[nH]c2cc3[nH]c4ncccc4c(=O)c3cc2[nH]1 | > 10 | > 10 | > 10 | > 10 | > 10 | > 10 | > 10 | > 10 | > 10 | > 10 | > 10 | > 10 | > 10 | > 10 | > 10 | > 10 | > 10 | > 10 | > 10 | > 10 |
| CC(=O)N1CCN(C23OC4(N5CCN(C(C)=O)CC5)C5C6CC(C7C6C4C72)C53)CC1 (stereo not given) | > 100 | > 100 | > 100 | > 100 | > 100 | > 100 | > 100 | > 100 | > 100 | > 100 | > 100 | > 100 | > 100 | > 100 | > 100 | > 100 | > 100 | > 100 | > 100 | > 100 |
